# Reference: patent publication US9340819B2, “Method for detecting the presence of carbapenemase-producing bacteria in a sample” (priority 2011, dated 2016)
# Columns and labels:
# E. asburiae = assay: MIC of carbapenem by Etest (Example 2); assay type: cell-based, Enterobacter asburiae; settings: E. asburiae IMI-2, n=1
# Method: (§1) All strains had previously been characterized for their β-lactamase content at the molecular level. Minimum inhibitory concentration of carbapenem were determined using the Etest® (AB bioMérieux, Solna, Sweden) and results were recorded according to US guidelines (CLSI), as updated in 2011.
# P. rettgeri [1] = assay: MIC of carbapenem by Etest (Example 2); assay type: cell-based, Proteus rettgeri
# Method: as §1
# P. rettgeri [2] = assay: MIC by Etest on Mueller-Hinton agar (Example 1); assay type: cell-based, Proteus rettgeri; settings: Providencia rettgeri; P. rettgeri RAP (9); OXA-181 + OXA-1
# Method: (§2) Prior to performing the method of the invention, susceptibility testings were performed by determining Minimum Inhibitory Concentration (MIC) values by the Etest® (AB bioMérieux; Solna, Sweden) on Mueller-Hinton agar plates at 37° C. and results of susceptibility testing were recorded according to the Clinical and Laboratory Standards Institute (CLSI) guidelines as modified in June 2010 (18). The breakpoints for imipenem are S≦1 μg/ml (susceptibility) and R≧4 μg/ml (resistant). As for those for ertapenem, they are S≦0.25 μg/ml and R≧1 μg/ml (see Tables 1 and 2).
# K. pneumoniae [3] = assay: MIC of carbapenem by Etest (Example 2); assay type: cell-based, Klebsiella pneumoniae
# Method: as §1
# K. ozonae = assay: MIC of carbapenem by Etest (Example 2); assay type: cell-based; settings: K. ozonae KPC-3, n=1
# Method: as §1
# E. sakazaki = assay: MIC of carbapenem by Etest (Example 2); assay type: cell-based; settings: ESBL + decreased membrane permeability; E. sakazaki CTX-M-15, n=1
# Method: as §1
# Salmonella spp. = assay: MIC of carbapenem by Etest (Example 2); assay type: cell-based; settings: Salmonella spp. KPC-2, n=1
# Method: as §1
# C. freundii [4] = assay: MIC of carbapenem by Etest (Example 2); assay type: cell-based, Citrobacter freundii
# Method: as §1
# E. coli = assay: MIC of carbapenem by Etest (Example 2); assay type: cell-based, Escherichia coli
# Method: as §1
# P. stuartii = assay: MIC by Etest on Mueller-Hinton agar (Example 1); assay type: cell-based; settings: Providencia stuartii, NDM-1 + OXA-1 + CMY-6
# Method: as §2
# E. cloacae [5] = assay: MIC by Etest on Mueller-Hinton agar (Example 1); assay type: cell-based; settings: Enterobacter cloacae
# Method: as §2
# C. freundii [6] = assay: MIC by Etest on Mueller-Hinton agar (Example 1); assay type: cell-based; settings: Citrobacter freundii; C. freundii STE (13); NDM-1 + OXA-1 + OXA-9 + OXA-10 + CTX-M-15 + TEM-1
# Method: as §2
# P. mirabilis [7] = assay: MIC by Etest on Mueller-Hinton agar (Example 1); assay type: cell-based; settings: Proteus mirabilis, plasmid mediated cephalosporinase ACC-1
# Method: as §2
# K. pneumoniae [8] = assay: MIC by Etest on Mueller-Hinton agar (Example 1); assay type: cell-based; settings: Klebsiella pneumoniae
# Method: as §2
# E. aerogenes = assay: MIC of carbapenem by Etest (Example 2); assay type: cell-based, Enterobacter aerogenes
# Method: as §1
# P. mirabilis [9] = assay: MIC of carbapenem by Etest (Example 2); assay type: cell-based, Proteus mirabilis; settings: Plasmid mediated AmpC or chromosomal AmpC + decreased membrane permeability; P. mirabilis ACC-1, n=1
# Method: as §1
# S. marcescens = assay: MIC of carbapenem by Etest (Example 2); assay type: cell-based, Serratia marcescens
# Method: as §1
# M. morganii = assay: MIC of carbapenem by Etest (Example 2); assay type: cell-based, Morganella morganii; settings: Plasmid mediated AmpC or chromosomal AmpC + decreased membrane permeability; M. morganii Overexpressed cephalosporinase, n=2
# Method: as §1
# E. cloacae [10] = assay: MIC of carbapenem by Etest (Example 2); assay type: cell-based, Enterobacter cloacae
# Method: as §1
compound,measurement,setting,value
"C[C@@H](O)[C@H]1C(=O)N2C(C(=O)O)=C(S[C@@H]3CN[C@H](C(=O)Nc4cccc(C(=O)O)c4)C3)[C@H](C)[C@H]12 [ERT, ertapenem]",MICs range,E. asburiae,>32 mg/L
same,MICs range,"P. rettgeri [1]; P. rettgeri NDM-1, n=1",0.5 mg/L
same,MICs range,"P. rettgeri [1]; P. rettgeri OXA-181, n=1",1 mg/L
same,MIC,P. rettgeri [2],2 µg/mL
same,MICs range,"K. pneumoniae [3]; ESBL + decreased membrane permeability, K. pneumoniae SHV-2a, n=1",2 mg/L
same,MICs range,"K. pneumoniae [3]; ESBL + decreased membrane permeability, K. pneumoniae SHV-28, n=1",4 mg/L
same,MICs range,"K. pneumoniae [3]; ESBLs, K. pneumoniae CTX-M-3, n=1",0.12 mg/L
same,MICs range,"K. pneumoniae [3]; ESBLs, K. pneumoniae CTX-M-14, n=1",0.12 mg/L
same,MICs range,"K. pneumoniae [3]; ESBLs, K. pneumoniae CTX-M-15, n=3",0.12 mg/L
same,MICs range,"K. pneumoniae [3]; K. pneumoniae IMP-1, n=5",2 to 4 mg/L
same,MICs range,"K. pneumoniae [3]; K. pneumoniae IMP-8, n=2",0.5 to 1^ mg/L
same,MICs range,"K. pneumoniae [3]; K. pneumoniae NDM-4, n=1",>32 mg/L
same,MICs range,"K. pneumoniae [3]; K. pneumoniae OXA-181, n=2",2 to 4 mg/L
same,MICs range,"K. pneumoniae [3]; K. pneumoniae VIM-19, n=1",16 mg/L
same,MICs range,"K. pneumoniae [3]; Plasmid mediated AmpC or chromosomal AmpC + decreased membrane permeability, K. pneumoniae DHA-1, n=1",>32 mg/L
same,MICs range,"K. pneumoniae [3]; Plasmid mediated AmpC or chromosomal AmpC + decreased membrane permeability, K. pneumoniae DHA-2, n=1",0.5 mg/L
same,MICs range,K. ozonae,>32 mg/L
same,MICs range,E. sakazaki,1.5 mg/L
same,MICs range,Salmonella spp.,1 mg/L
same,MICs range,"C. freundii [4]; C. freundii NDM-1, n=1",>32 mg/L
same,MICs range,"C. freundii [4]; ESBL + decreased membrane permeability, C. freundii TEM-3, n=1",8 mg/L
same,MICs range,"E. coli; E. coli IMP-1, n=2",3 to 4 mg/L
same,MICs range,"E. coli; E. coli IMP-8, n=1",8 mg/L
same,MICs range,"E. coli; E. coli OXA-48, n=6",0.5 to 16 mg/L
same,MICs range,"E. coli; E. coli VIM-1, n=2",0.38 to 1.5 mg/L
same,MICs range,"E. coli; E. coli VIM-2, n=2",0.5 to 1.5 mg/L
same,MICs range,"E. coli; E. coli VIM-19, n=1",16 mg/L
same,MICs range,"E. coli; ESBLs, E. coli CTX-M-1, n=1",0.12 mg/L
same,MICs range,"E. coli; ESBLs, E. coli CTX-M-3, n=1",0.12 mg/L
same,MICs range,"E. coli; ESBLs, E. coli CTX-M-14, n=2",0.12 mg/L
same,MICs range,"E. coli; ESBLs, E. coli CTX-M-15, n=2",0.12 mg/L
same,MICs range,"E. coli; ESBLs, E. coli VEB-1, n=1",0.12 mg/L
same,MICs range,"E. coli; Plasmid mediated AmpC or chromosomal AmpC + decreased membrane permeability, E. coli ACC-1, n=1",0.12 mg/L
same,MICs range,"E. coli; Plasmid mediated AmpC or chromosomal AmpC + decreased membrane permeability, E. coli CMY-2, n=1",0.12 mg/L
same,MICs range,"E. coli; Plasmid mediated AmpC or chromosomal AmpC + decreased membrane permeability, E. coli CMY-10, n=1",0.38 mg/L
same,MICs range,"E. coli; Plasmid mediated AmpC or chromosomal AmpC + decreased membrane permeability, E. coli DHA-1, n=1",0.12 mg/L
same,MICs range,"E. coli; Plasmid mediated AmpC or chromosomal AmpC + decreased membrane permeability, E. coli Extended spectrum cephalosporinase, n=1",0.12 mg/L
same,MICs range,"E. coli; Plasmid mediated AmpC or chromosomal AmpC + decreased membrane permeability, E. coli Overexpressed cephalosporinase, n=1",>32 mg/L
same,MIC,P. stuartii,> 32 µg/mL
same,MIC,"E. cloacae [5]; E. cloacae 2185, ESBL OXA-163",0.19 µg/mL
same,MIC,"E. cloacae [5]; E. cloacae (1), KPC-2",6 µg/mL
same,MIC,"E. cloacae [5]; E. cloacae (17), ESBL CTX-M-15",0.19 µg/mL
same,MIC,"E. cloacae [5]; E. cloacae ARF (25), overexpression of chromosomal cephalosporinase AmpC",0.5 µg/mL
same,MIC,"E. cloacae [5]; E. cloacae BLA, overexpression of chromosomal cephalosporinase AmpC",0.5 µg/mL
same,MIC,"E. cloacae [5]; E. cloacae CON (26), overexpression of chromosomal cephalosporinase AmpC",0.75 µg/mL
same,MIC,"E. cloacae [5]; E. cloacae IR38, NDM-1 + CTX-M-15",> 32 µg/mL
same,MIC,"E. cloacae [5]; E. cloacae TUR (6), OXA-48 + SHV-5",1 µg/mL
same,MIC,"E. cloacae [5]; E. cloacae, ESBL VEB-1",0.19 µg/mL
same,MIC,C. freundii [6],> 32 µg/mL
same,MIC,P. mirabilis [7],0.19 µg/mL
same,MIC,"K. pneumoniae [8]; CIP53153, K. pneumoniae CIP53153 (30), wild-type",0.19 µg/mL
same,MIC,"K. pneumoniae [8]; K. pneumoniae 1 OMA (11), NDM-1 + CTX-M-15 + OXA-1 + OXA-9",> 32 µg/mL
same,MIC,"K. pneumoniae [8]; K. pneumoniae 2 OMA, NDM-1 + OXA-1",> 32 µg/mL
same,MIC,"K. pneumoniae [8]; K. pneumoniae 7 AFR, NDM-1 + OXA-1 + CTX-M-15 + CMY-6 + TEM-1",> 32 µg/mL
same,MIC,"K. pneumoniae [8]; K. pneumoniae 6299 (19), ESBL OXA-163",0.19 µg/mL
same,MIC,"K. pneumoniae [8]; K. pneumoniae 6759 GEN, NDM-1 + CTX-M-15 + OXA-1 + OXA-9 + OXA-10 + CMY16",32 µg/mL
same,MIC,"K. pneumoniae [8]; K. pneumoniae (16), ESBL CTX-M-15",0.19 µg/mL
same,MIC,"K. pneumoniae [8]; K. pneumoniae BEL, OXA-48",4 µg/mL
same,MIC,"K. pneumoniae [8]; K. pneumoniae BER (28), porin deficiency associated with ESBL, TEM",0.75 µg/mL
same,MIC,"K. pneumoniae [8]; K. pneumoniae BIC (4), OXA-48",2 µg/mL
same,MIC,"K. pneumoniae [8]; K. pneumoniae CHA (5), OXA-48 + TEM-1",1 µg/mL
same,MIC,"K. pneumoniae [8]; K. pneumoniae COO (27), porin deficiency associated with ESBL, CTX-M-15 + SHV-28",0.75 µg/mL
same,MIC,"K. pneumoniae [8]; K. pneumoniae DIN, NDM-1",32 µg/mL
same,MIC,"K. pneumoniae [8]; K. pneumoniae EGY, OXA-48 + CTX-M-15",3 µg/mL
same,MIC,"K. pneumoniae [8]; K. pneumoniae H1516-6 COL (3), KPC-2 + TEM-1 + CTXM-15",3 µg/mL
same,MIC,"K. pneumoniae [8]; K. pneumoniae HOL, OXA-181 + CTX-M-15",1 µg/mL
same,MIC,"K. pneumoniae [8]; K. pneumoniae IND, NDM-1 + OXA-1 + CTX-M-15",8 µg/mL
same,MIC,"K. pneumoniae [8]; K. pneumoniae MAD (15), IMP-13",2 µg/mL
same,MIC,"K. pneumoniae [8]; K. pneumoniae MAD, VIM-1 + CTX-M-3",> 32 µg/mL
same,MIC,"K. pneumoniae [8]; K. pneumoniae OMA (8), OXA-181 + CTXM-15 + OXA-1",2 µg/mL
same,MIC,"K. pneumoniae [8]; K. pneumoniae RAM, OXA-48",2 µg/mL
same,MIC,"K. pneumoniae [8]; K. pneumoniae SAB, NDM-1",8 µg/mL
same,MIC,"K. pneumoniae [8]; K. pneumoniae UK (10), NDM-1 + CTX-M-15 + CMY-4 + OXA-1",32 µg/mL
same,MICs range,"E. aerogenes; E. aerogenes KPC-2, n=1",>32 mg/L
same,MICs range,"E. aerogenes; Plasmid mediated AmpC or chromosomal AmpC + decreased membrane permeability, E. aerogenes Overexpressed cephalosporinase, n=1",4 mg/L
same,MICs range,P. mirabilis [9],0.12 mg/L
same,MICs range,"S. marcescens; S. marcescens IMP-1, n=2",>32 mg/L
same,MICs range,"S. marcescens; S. marcescens IMP-11, n=1",>32 mg/L
same,MICs range,"S. marcescens; S. marcescens KPC-2, n=2",>32 mg/L
same,MICs range,"S. marcescens; S. marcescens SME-1, n=1",4 mg/L
same,MICs range,"S. marcescens; S. marcescens SME-2, n=1",4 mg/L
same,MICs range,"S. marcescens; S. marcescens VIM-2, n=1",>32 mg/L
same,MICs range,M. morganii,0.12 mg/L
same,MICs range,"E. cloacae [10]; E. cloacae GES-5, n=1",>32 mg/L
same,MICs range,"E. cloacae [10]; E. cloacae IMP-1, n=12",>32 mg/L
same,MICs range,"E. cloacae [10]; E. cloacae IMP-8, n=2",0.5 to 1^ mg/L
same,MICs range,"E. cloacae [10]; E. cloacae KPC-2, n=7",1.5 to 32 mg/L
same,MICs range,"E. cloacae [10]; E. cloacae NDM-1, n=1",16 mg/L
same,MICs range,"E. cloacae [10]; E. cloacae NMC-A, n=1",>32 mg/L
same,MICs range,"E. cloacae [10]; E. cloacae OXA-48, n=3",0.5 to 16 mg/L
same,MICs range,"E. cloacae [10]; ESBLs, E. cloacae CTX-M-15, n=3",0.12 mg/L
same,MICs range,"E. cloacae [10]; ESBLs, E. cloacae VEB-1, n=1",0.12 mg/L
